Legend:
Assay in all cases: FLIPR calcium assay, cells with promiscuous G protein transfected with bitter receptor cDNA
Type in all cases: cell-based
Settings in all cases: responsive if cellular response of >10% over baseline, Fluo4-AM
[1] = molecular target: T1, T2R receptor SEQ ID NO: 5 (S5) (Homo sapiens, UniProt P59534)
T1 construct: expressed in transfected cells; host or cells: cells expressing a promiscuous G protein (e.g., G16g44)
T1 sequence (P59534 18-338): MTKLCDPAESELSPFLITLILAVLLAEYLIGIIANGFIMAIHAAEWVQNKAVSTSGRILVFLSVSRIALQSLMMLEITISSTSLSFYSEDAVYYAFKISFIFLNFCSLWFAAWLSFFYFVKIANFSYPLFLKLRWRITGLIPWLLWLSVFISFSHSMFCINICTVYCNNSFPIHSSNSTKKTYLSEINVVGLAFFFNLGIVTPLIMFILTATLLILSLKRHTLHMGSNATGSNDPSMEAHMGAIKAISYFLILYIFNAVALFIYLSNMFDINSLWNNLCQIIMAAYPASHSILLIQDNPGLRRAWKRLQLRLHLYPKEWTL
Procedure: (§1) Cells expressing a promiscuous G protein (e.g., G16g44) were transfected with vectors encoding 22 functional bitter receptor cDNAs, with one receptor per transfection. The cells were transfected directly in 384-well format high-density plates and incubated for 28 hours. Later, cells were loaded with the Ca-specific dye Fluo4-AM. After an incubation of 60 minutes, excess dye is washed off, and cells are stimulated with respective bitter agonists while simultaneously recording changes in intracellular fluorescence using a FLIPR instrument.
(§2) The above protocol was carried out using 94 different active pharmaceutical ingredients (APIs) that span a wide range of different APIs having a diversity of chemical structures. A particular T2R receptor was identified as being responsive to a particular API if it triggered a cellular response of >10% over baseline.

[2] = molecular target: T2, T2R receptor SEQ ID NO: 1 (S1) (Homo sapiens, UniProt Q9NYW7)
T2 construct: expressed in transfected cells; host or cells: cells expressing a promiscuous G protein (e.g., G16g44)
T2 sequence (Q9NYW7 1-299): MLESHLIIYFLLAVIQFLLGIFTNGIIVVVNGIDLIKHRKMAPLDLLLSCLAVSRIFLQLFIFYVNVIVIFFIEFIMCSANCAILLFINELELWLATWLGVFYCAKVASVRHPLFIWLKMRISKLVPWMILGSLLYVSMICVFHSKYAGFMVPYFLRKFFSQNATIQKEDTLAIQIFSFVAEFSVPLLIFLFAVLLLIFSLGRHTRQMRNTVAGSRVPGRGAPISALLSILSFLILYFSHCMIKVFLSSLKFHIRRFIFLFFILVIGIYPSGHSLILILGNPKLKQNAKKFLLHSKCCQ
Procedure: as §1, §2

[3] = molecular target: T3, T2R receptor SEQ ID NO: 6 (S6) (Homo sapiens, UniProt P59540)
T3 construct: expressed in transfected cells; host or cells: cells expressing a promiscuous G protein (e.g., G16g44)
T3 sequence (P59540 1-309): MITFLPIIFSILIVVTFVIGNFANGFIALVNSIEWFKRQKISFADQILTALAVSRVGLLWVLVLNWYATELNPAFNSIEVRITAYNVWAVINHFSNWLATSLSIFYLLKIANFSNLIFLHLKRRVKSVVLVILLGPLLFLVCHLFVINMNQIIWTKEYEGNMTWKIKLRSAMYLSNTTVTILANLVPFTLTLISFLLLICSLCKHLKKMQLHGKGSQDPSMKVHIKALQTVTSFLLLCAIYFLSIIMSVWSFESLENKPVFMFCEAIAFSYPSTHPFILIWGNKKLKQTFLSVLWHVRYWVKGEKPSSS
Procedure: as §1, §2

[4] = molecular target: T4, T2R receptor SEQ ID NO: 4 (S4) (Homo sapiens, UniProt Q9NYV8)
T4 construct: expressed in transfected cells; host or cells: cells expressing a promiscuous G protein (e.g., G16g44)
T4 sequence (Q9NYV8 1-317): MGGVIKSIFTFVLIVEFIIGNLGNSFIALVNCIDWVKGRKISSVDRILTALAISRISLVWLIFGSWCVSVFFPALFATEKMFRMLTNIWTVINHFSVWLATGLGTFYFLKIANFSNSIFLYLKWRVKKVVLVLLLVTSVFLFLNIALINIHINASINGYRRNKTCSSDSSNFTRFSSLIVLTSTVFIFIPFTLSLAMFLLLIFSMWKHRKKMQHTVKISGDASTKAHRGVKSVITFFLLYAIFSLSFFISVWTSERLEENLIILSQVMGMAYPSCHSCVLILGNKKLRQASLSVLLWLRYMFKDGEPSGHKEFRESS
Procedure: as §1, §2

[5] = molecular target: T5, T2R receptor SEQ ID NO: 3 (S3) (Homo sapiens, UniProt Q9NYW0, T156M)
T5 construct: expressed in transfected cells; host or cells: cells expressing a promiscuous G protein (e.g., G16g44)
T5 sequence (Q9NYW0 1-307 T156M): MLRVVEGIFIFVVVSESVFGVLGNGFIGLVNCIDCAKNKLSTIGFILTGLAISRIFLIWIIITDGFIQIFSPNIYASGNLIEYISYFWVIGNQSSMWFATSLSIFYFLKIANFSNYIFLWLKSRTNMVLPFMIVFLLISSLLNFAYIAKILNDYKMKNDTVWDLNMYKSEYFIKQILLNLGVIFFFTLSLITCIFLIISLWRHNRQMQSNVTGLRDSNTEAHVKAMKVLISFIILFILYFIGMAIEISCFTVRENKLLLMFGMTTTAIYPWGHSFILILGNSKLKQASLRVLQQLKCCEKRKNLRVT
Procedure: as §1, §2

CC(=O)Nc1ccc(O)cc1 [Acetaminophen]
S5 positive response of T2R receptor to API [1]: + (a “+” to indicate whether a particular T2R receptor showed a positive response to a particular API)

CC(=O)Oc1ccc(C(c2ccc(OC(C)=O)cc2)c2ccccn2)cc1 [Bisacodyl]
S1 positive response of T2R receptor to API [2]: + (a “+” to indicate whether a particular T2R receptor showed a positive response to a particular API) | S6 positive response of T2R receptor to API [3]: + (a “+” to indicate whether a particular T2R receptor showed a positive response to a particular API) | S4 positive response of T2R receptor to API [4]: + (a “+” to indicate whether a particular T2R receptor showed a positive response to a particular API)

COC(=O)[C@H](c1ccccc1Cl)N1CCc2sccc2C1 [Clopidogrel]
S3 positive response of T2R receptor to API [5]: + (a “+” to indicate whether a particular T2R receptor showed a positive response to a particular API) | S1 positive response of T2R receptor to API [2]: + (a “+” to indicate whether a particular T2R receptor showed a positive response to a particular API)

COc1cc2c(c(OC)c1OC)-c1ccc(OC)c(=O)cc1[C@@H](NC(C)=O)CC2 [Colchicine]
S6 positive response of T2R receptor to API [3]: + (a “+” to indicate whether a particular T2R receptor showed a positive response to a particular API) | S5 positive response of T2R receptor to API [1]: + (a “+” to indicate whether a particular T2R receptor showed a positive response to a particular API)

Cc1cc(N)c2ccccc2[n+]1CCCCCCCCCC[n+]1c(C)cc(N)c2ccccc21 [Dequalinium]
S6 positive response of T2R receptor to API [3]: + (a “+” to indicate whether a particular T2R receptor showed a positive response to a particular API) | S5 positive response of T2R receptor to API [1]: + (a “+” to indicate whether a particular T2R receptor showed a positive response to a particular API)

CC12CCC(CC1)C(C)(C)O2 [Eucalyptol]
S1 positive response of T2R receptor to API [2]: + (a “+” to indicate whether a particular T2R receptor showed a positive response to a particular API) | S4 positive response of T2R receptor to API [4]: + (a “+” to indicate whether a particular T2R receptor showed a positive response to a particular API)

C=CC[C@@H]1/C=C(\C)C[C@H](C)C[C@H](OC)[C@H]2O[C@@](O)(C(=O)C(=O)N3CCCC[C@H]3C(=O)O[C@H](/C(C)=C/[C@@H]3CC[C@@H](O)[C@H](OC)C3)[C@H](C)[C@@H](O)CC1=O)[C@H](C)C[C@@H]2OC [Fujimycin]
S1 positive response of T2R receptor to API [2]: + (a “+” to indicate whether a particular T2R receptor showed a positive response to a particular API)

CC(CCc1ccccc1)NCC(O)c1ccc(O)c(C(N)=O)c1 (centres unmarked) [Labetalol]
S3 positive response of T2R receptor to API [5]: + (a “+” to indicate whether a particular T2R receptor showed a positive response to a particular API) | S6 positive response of T2R receptor to API [3]: + (a “+” to indicate whether a particular T2R receptor showed a positive response to a particular API) | S5 positive response of T2R receptor to API [1]: + (a “+” to indicate whether a particular T2R receptor showed a positive response to a particular API)

CCN(CC)CCNC(=O)c1ccc(N)cc1 [Procaineamide]
S3 positive response of T2R receptor to API [5]: + (a “+” to indicate whether a particular T2R receptor showed a positive response to a particular API) | S6 positive response of T2R receptor to API [3]: + (a “+” to indicate whether a particular T2R receptor showed a positive response to a particular API) | S5 positive response of T2R receptor to API [1]: + (a “+” to indicate whether a particular T2R receptor showed a positive response to a particular API)

Cc1cc(NS(=O)(=O)c2ccc(N)cc2)no1 [Sulfamethoxazole]
S1 positive response of T2R receptor to API [2]: + (a “+” to indicate whether a particular T2R receptor showed a positive response to a particular API)

COC(=O)[C@@H]1[C@H]2C[C@H]3c4[nH]c5ccccc5c4CCN3C[C@@H]2CC[C@@H]1O [Yohimbine]
S3 positive response of T2R receptor to API [5]: + (a “+” to indicate whether a particular T2R receptor showed a positive response to a particular API) | S1 positive response of T2R receptor to API [2]: + (a “+” to indicate whether a particular T2R receptor showed a positive response to a particular API) | S6 positive response of T2R receptor to API [3]: + (a “+” to indicate whether a particular T2R receptor showed a positive response to a particular API)

From patent US20250271426A1, “REDUCTION OF BITTER TASTE OF ACTIVE PHARMACEUTICAL INGREDIENTS AND RELATED ASSAYS AND SCREENING METHODS” (Firmenich Incorporated, priority 2022, published 2025)
